Test [1] concerns the target T1, Serine/threonine-protein kinase tousled-like 1 (Homo sapiens) (UniProt Q9UKI8).
T1 sequence (whole entry): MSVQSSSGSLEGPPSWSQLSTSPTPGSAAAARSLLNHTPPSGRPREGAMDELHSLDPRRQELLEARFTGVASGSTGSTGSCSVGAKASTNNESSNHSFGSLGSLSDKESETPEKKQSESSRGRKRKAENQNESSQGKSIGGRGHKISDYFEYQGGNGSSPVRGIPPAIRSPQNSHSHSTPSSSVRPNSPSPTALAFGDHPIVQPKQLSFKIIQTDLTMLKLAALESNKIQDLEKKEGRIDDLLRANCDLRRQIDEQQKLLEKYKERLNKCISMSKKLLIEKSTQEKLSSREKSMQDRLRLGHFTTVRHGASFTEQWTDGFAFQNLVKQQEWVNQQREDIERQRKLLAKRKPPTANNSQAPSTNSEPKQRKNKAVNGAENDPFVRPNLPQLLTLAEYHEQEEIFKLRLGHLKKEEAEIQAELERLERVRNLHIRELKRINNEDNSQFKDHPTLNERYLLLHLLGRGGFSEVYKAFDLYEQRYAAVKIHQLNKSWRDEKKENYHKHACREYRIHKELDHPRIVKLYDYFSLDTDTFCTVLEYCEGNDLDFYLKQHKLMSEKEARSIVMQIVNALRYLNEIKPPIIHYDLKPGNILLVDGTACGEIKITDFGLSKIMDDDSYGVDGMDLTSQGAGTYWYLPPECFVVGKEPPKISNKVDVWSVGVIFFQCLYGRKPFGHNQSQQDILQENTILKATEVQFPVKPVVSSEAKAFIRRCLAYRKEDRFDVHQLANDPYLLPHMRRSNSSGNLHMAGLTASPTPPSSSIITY
Briefly: Selectivity interaction (Ambit KINOMEscan and KiNATiv profiling in Jurkat cells) EUB0000090b TLK1. The format is cell-based. As to conditions: at 1 µM.

The target of test [2] is T2, TGF-beta receptor type-1 (Homo sapiens) (UniProt P36897).
T2 sequence (whole entry): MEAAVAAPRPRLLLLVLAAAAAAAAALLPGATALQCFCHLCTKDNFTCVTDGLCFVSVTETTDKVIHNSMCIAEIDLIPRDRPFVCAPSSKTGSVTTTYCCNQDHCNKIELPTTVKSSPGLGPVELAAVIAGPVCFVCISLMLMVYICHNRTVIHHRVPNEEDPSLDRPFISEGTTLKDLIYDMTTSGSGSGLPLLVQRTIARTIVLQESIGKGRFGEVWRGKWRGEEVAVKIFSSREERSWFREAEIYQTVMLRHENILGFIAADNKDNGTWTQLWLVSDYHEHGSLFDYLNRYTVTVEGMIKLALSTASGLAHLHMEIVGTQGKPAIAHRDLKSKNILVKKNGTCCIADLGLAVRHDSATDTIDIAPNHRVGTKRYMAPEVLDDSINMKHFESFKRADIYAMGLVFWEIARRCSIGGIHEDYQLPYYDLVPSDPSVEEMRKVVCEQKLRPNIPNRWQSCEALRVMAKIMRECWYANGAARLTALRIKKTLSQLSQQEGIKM
Description: Selectivity interaction (KinomeScan (DiscoverX)) EUB0000666a TGFBR1. As to conditions: at 10 µM.

Test [3] concerns the target Tyrosine-protein kinase Srms (Homo sapiens) (UniProt Q9H3Y6). Description: Selectivity interaction (KinomeScan (DiscoverX)) EUB0001079a SRMS. Conditions: at 1 µM.
Test [4] concerns the target T3, Mitogen-activated protein kinase 12 (Homo sapiens) (UniProt P53778).
T3 sequence (whole entry): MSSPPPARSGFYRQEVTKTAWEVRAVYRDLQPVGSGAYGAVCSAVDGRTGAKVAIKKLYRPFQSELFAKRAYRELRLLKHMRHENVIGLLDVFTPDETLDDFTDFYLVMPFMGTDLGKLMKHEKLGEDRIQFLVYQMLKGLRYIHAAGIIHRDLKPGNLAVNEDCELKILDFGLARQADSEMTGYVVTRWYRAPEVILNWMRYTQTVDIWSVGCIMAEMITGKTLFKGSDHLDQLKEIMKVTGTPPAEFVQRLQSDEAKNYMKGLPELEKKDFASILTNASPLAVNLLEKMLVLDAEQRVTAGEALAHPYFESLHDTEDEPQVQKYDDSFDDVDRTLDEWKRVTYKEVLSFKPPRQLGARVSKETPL
Briefly: Selectivity interaction (KinomeScan (DiscoverX)) EUB0001619a MAPK12. Conditions: at 1 µM.

Test [5] concerns the target T4, Serine/threonine-protein kinase 3 (Homo sapiens) (UniProt Q13188).
T4 sequence (whole entry): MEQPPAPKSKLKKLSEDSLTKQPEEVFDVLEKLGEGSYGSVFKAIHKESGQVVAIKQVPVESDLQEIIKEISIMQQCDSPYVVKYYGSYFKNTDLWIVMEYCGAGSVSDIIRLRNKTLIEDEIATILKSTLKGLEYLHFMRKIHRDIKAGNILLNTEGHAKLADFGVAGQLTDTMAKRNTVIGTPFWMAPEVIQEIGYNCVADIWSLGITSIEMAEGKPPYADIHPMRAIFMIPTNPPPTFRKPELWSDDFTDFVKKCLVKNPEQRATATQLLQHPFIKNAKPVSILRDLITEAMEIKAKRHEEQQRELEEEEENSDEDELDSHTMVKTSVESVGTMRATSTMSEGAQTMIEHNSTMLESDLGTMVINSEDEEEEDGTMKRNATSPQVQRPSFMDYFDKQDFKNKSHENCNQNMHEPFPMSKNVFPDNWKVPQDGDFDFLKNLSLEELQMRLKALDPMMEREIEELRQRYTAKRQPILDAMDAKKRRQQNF
Description: Selectivity interaction (ActivX KiNativ screen (ex vivo kinase selectivity in human PBMCs)) EUB0001619a STK3. In kind it is cell-based. Conditions: PBMC, at 1 µM.

The target of test [6] is Ribosomal protein S6 kinase alpha-5 (Homo sapiens) (UniProt O75582). Briefly: Selectivity interaction (ActivX KiNativ screen (kinase selectivity in THP-1 cell lysates)) EUB0000639a RPS6KA5. The format is subcellular. As to conditions: lysate.
The target is the same in test [7]. Description: Selectivity interaction (KinomeScan (DiscoverX)) EUB0001049a RPS6KA5. As to conditions: at 1 µM.
Test [8] relates to Leucine-rich repeat serine/threonine-protein kinase 2 (Homo sapiens), Q5S007 [G2019S]. Description: (§1) Selectivity interaction (KinomeScan (DiscoverX)) EUB0000695a LRRK2. As to conditions: at 100 nM.
For test [9], the target named is Leucine-rich repeat serine/threonine-protein kinase 2 (Homo sapiens, UniProt Q5S007). Described as §1. As to conditions: at 100 nM.
Test [10] has as its target Non-receptor tyrosine-protein kinase TYK2 (Homo sapiens, UniProt P29597). Description: Selectivity interaction (KinomeScan (DiscoverX)) EUB0000092b TYK2. Conditions: at 10 µM.
Test [11] has as its target Phosphatidylinositol 4-phosphate 3-kinase C2 domain-containing subunit beta (Homo sapiens) (UniProt O00750). Briefly: Selectivity interaction (KinomeScan (DiscoverX)) EUB0000045b PIK3C2B.

This is an account of results in ChEMBL document CHEMBL5465560, “Selectivity Literature for EUbOPEN Chemogenomic Library” (2024).

Sequence of Ribosomal protein S6 kinase alpha-5 (Homo sapiens) (O75582 whole entry, looked up): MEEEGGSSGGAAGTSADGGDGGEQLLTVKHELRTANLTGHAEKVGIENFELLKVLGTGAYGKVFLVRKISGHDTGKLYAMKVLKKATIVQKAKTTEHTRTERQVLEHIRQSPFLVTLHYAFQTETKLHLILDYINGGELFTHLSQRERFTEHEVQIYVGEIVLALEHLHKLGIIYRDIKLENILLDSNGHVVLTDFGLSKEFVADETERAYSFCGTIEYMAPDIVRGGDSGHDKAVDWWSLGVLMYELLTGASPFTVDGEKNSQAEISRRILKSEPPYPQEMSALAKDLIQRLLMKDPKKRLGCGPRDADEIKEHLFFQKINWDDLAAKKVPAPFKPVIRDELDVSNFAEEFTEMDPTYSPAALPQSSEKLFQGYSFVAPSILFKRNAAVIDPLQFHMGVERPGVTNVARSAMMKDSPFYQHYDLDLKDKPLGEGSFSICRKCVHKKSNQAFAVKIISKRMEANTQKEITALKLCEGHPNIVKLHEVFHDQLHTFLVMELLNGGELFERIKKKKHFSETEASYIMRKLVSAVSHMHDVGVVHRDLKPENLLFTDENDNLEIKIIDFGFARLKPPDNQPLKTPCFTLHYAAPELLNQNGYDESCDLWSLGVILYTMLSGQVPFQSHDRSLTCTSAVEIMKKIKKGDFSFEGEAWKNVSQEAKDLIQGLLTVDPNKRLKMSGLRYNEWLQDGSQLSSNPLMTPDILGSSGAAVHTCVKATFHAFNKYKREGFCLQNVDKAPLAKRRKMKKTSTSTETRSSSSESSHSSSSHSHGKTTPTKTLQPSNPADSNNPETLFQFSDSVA
Sequence of Phosphatidylinositol 4-phosphate 3-kinase C2 domain-containing subunit beta (Homo sapiens) (O00750 whole entry, the tested form may be a part): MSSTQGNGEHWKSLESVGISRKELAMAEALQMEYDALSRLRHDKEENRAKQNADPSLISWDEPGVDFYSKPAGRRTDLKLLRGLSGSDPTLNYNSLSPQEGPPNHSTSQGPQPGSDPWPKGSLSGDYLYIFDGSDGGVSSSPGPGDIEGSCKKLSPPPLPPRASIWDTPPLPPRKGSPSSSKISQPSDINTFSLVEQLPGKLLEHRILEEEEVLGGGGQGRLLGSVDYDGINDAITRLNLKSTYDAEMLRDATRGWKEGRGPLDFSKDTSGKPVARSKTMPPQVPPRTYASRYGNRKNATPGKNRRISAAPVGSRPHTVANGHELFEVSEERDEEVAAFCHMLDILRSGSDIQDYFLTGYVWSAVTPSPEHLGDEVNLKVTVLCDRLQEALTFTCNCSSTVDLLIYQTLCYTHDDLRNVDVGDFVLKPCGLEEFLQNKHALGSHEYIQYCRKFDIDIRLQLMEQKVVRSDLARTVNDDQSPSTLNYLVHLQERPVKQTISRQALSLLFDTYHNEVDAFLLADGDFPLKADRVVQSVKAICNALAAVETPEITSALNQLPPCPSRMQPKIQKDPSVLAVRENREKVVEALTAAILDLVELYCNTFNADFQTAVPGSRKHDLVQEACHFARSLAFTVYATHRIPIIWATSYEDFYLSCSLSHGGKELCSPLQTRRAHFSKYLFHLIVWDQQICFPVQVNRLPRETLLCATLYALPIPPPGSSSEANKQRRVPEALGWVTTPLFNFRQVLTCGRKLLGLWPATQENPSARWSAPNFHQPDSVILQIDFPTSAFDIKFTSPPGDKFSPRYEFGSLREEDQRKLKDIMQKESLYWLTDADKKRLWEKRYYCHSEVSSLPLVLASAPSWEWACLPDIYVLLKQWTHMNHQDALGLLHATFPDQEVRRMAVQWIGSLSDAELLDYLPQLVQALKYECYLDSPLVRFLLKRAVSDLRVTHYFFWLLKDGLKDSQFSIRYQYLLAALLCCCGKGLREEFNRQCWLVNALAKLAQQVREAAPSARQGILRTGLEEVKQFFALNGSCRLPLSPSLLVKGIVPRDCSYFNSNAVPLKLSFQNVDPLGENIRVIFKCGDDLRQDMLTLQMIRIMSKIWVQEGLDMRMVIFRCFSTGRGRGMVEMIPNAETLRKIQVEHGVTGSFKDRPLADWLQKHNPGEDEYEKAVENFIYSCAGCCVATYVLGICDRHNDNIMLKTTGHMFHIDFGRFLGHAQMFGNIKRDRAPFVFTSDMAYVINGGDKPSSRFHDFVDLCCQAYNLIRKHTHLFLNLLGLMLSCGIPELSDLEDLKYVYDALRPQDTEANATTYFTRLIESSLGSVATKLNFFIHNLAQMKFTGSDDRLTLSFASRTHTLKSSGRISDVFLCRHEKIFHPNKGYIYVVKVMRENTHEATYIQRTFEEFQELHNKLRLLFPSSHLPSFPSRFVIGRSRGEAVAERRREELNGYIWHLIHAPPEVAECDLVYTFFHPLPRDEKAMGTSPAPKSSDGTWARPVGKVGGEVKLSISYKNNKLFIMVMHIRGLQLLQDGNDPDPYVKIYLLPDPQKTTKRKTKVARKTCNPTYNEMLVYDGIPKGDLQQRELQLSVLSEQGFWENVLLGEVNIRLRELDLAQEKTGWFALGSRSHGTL
Sequence of Leucine-rich repeat serine/threonine-protein kinase 2 (Homo sapiens), Q5S007 [G2019S] (Q5S007 whole entry G2019S): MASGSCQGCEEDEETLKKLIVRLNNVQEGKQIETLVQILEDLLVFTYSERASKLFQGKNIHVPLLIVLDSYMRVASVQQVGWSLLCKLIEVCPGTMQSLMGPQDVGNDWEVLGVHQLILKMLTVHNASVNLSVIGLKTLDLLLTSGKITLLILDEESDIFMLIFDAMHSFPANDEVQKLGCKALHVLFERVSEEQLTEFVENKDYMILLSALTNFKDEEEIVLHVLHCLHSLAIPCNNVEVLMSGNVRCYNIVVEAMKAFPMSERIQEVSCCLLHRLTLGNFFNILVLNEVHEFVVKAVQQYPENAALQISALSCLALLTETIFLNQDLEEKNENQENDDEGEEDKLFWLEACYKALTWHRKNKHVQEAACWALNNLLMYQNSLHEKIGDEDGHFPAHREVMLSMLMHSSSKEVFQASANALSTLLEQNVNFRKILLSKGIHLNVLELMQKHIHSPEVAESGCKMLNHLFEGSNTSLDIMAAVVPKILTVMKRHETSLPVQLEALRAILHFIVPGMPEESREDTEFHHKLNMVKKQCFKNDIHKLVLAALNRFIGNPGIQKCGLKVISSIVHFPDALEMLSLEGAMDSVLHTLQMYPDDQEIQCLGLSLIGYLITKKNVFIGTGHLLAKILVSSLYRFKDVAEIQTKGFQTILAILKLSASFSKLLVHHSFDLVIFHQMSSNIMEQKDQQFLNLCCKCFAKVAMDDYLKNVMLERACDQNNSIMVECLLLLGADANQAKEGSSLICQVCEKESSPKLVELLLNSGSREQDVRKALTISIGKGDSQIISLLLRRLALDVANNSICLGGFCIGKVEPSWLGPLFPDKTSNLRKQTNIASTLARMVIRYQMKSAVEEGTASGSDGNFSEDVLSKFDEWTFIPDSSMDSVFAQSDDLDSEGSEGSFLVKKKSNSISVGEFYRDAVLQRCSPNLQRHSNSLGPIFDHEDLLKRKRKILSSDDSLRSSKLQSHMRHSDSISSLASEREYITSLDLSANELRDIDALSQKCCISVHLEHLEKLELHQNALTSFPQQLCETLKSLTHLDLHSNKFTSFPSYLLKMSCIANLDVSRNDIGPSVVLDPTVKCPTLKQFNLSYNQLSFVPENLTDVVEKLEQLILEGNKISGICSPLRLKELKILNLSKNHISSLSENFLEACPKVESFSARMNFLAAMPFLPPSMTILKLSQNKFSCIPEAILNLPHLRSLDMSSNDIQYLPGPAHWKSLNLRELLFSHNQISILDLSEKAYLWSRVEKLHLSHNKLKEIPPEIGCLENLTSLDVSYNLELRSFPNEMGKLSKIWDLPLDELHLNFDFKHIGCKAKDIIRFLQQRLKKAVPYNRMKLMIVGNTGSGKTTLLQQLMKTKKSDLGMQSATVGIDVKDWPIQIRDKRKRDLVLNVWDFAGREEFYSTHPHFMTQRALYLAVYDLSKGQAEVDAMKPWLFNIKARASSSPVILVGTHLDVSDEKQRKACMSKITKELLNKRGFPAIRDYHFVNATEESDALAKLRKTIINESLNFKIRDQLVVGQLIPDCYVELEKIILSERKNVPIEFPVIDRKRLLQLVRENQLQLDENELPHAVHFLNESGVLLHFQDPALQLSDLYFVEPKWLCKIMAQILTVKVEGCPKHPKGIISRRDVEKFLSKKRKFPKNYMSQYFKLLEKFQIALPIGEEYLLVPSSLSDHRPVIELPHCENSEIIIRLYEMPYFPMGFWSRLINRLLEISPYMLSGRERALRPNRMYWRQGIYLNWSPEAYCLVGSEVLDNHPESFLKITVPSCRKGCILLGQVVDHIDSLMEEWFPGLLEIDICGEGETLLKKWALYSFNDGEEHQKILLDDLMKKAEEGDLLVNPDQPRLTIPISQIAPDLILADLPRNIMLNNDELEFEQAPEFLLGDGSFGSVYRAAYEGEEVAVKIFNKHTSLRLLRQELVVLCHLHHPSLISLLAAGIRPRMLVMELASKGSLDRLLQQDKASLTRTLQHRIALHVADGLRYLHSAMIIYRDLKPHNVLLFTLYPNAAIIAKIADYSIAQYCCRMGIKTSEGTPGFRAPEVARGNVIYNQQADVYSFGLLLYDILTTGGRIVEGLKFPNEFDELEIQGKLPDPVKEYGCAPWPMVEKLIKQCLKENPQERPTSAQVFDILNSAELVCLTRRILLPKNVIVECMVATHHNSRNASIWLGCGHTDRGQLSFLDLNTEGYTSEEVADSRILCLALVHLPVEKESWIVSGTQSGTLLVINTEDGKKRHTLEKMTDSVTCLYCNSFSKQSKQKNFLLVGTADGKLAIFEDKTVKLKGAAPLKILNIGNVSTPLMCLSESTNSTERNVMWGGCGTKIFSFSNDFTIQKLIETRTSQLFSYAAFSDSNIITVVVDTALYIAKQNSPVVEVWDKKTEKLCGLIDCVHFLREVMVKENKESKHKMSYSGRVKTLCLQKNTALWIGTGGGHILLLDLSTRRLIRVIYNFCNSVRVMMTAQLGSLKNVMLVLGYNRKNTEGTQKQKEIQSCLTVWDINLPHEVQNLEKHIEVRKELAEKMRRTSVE
Sequence of Leucine-rich repeat serine/threonine-protein kinase 2 (Q5S007 whole entry): as the sequence (Q5S007 whole entry G2019S) above, with S2019G counted along it

In turn, `CN(C)C/C=C/C(=O)Nc1ccc(C(=O)N2CCCC(Nc3ncc(Cl)c(-c4c[nH]c5ccccc45)n3)C2)cc1` (stereo unspecified) came in with a % of control in [1] of 92%.
In the case of `O=C(NOC[C@H](O)CO)c1ccc(F)c(F)c1Nc1ccc(I)cc1F`, the % of control in test [2] is 100%.
Take `Nc1cnc(N2CCc3cc(S(=O)(=O)Nc4c(F)cc(Cl)cc4F)cc(N4CCCC4=O)c32)nc1` [TP-020n]: the % of control in test [3] was 88%.
As to `N#Cc1cccc(-c2c[nH]c3ncnc(N4CCOCC4)c23)c1`, in test [4], the % of control was 100%. Moreover, in test [5], the % of inhibition was found to be 83%.
`CC[C@@H]1[C@H](F)C(=O)N[C@@H]1COc1nccc2cc(C(N)=O)c(OC)cc12` [ZIMLOVISERTIB]: the % of inhibition in [6] (at 0.01 µM) is 2.2%; in test [6] (at 0.04 µM) it was -1%; in test [6] (at 0.2 µM), -6.1%; in test [6] (at 1 µM), -9.7%; in test [6] (at 5 µM) it was -27.5%.
On to `COc1cc(Nc2nc(C)cc(-c3cnn4nc(OC)ccc34)n2)cc(C(F)(F)F)c1`, for which the % of control in test [7] came out at 95%.
With `Cc1cc(F)c(C(=O)Nc2cccc(-c3nncn3C(C)C)n2)cc1-n1cnc(C2CC2)c1`, the figures for the % of control in test [8] and in [9] were 39% and 18%, respectively.
`CCC(=O)N1CCN(c2ccc(-n3c(=O)ccc4cnc5ccc(-c6cnc7ccccc7c6)cc5c43)cc2C(F)(F)F)CC1` showed a % of control in test [10] of 70%.
Turning to `C=CC(=O)Nc1cc(-n2c(=O)ccc3cnc4ccc(-c5ccc(NS(C)(=O)=O)cc5)cc4c32)ccc1C`, the % of control in test [11] (at 1 µM) was determined as 100%; in test [11] (at 10 µM) it was 40%.
